Experimental data from ChEMBL document CHEMBL1201862, “PubChem BioAssay data set” (2004).
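1) Cells in 96-well plates. 2) Compound, 48 h, 5 concentrations. 3) Linear interpolation between surrounding doses. 4) Unreached endpoint = highest concentration. GI50 is the concentration that inhibits growth by half.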 Active and inactive are the calls of the source. Rule as the data show it: active = GI50 up to about 1.1 µM and inactive = higher. Non-standard residues stand in square brackets, D forms with d. Residues, ends and D or L forms follow the SMILES beside them. *: point of attachment. Phe(4-NO2) = N[CH](Cc1ccc([N+](=O)[O-])cc1)C(=O)O; Boc = CC(C)(C)OC(=O)*

Experiments:
Test in all cases: NCI anticancer screen, dose series, 48 h
[1] = tested on: NCI-H226
[2] = tested on: NCI/ADR-RES
[3] = tested on: SNB-75
[4] = tested on: OVCAR-4
[5] = tested on: UACC-62
[6] = tested on: Malme-3M
[7] = tested on: MDA-MB-435
[8] = tested on: KM12
[9] = tested on: COLO 205
[10] = tested on: CAKI-1
[11] = tested on: SK-MEL-5
[12] = tested on: SN12C
[13] = tested on: IGROV-1
[14] = tested on: CCRF-CEM
[15] = tested on: NCI-H522
[16] = tested on: HCC 2998
[17] = tested on: HOP-92
[18] = tested on: SK-MEL-28
[19] = tested on: NCI-H460
[20] = tested on: UO-31

| Structure (SMILES) | GI50 [1] | GI50 [2] | GI50 [3] | GI50 [4] | GI50 [5] | GI50 [6] | GI50 [7] | GI50 [8] | GI50 [9] | GI50 [10] | GI50 [11] | GI50 [12] | GI50 [13] | GI50 [14] | GI50 [15] | GI50 [16] | GI50 [17] | GI50 [18] | GI50 [19] | GI50 [20] |
| --- | --- | --- | --- | --- | --- | --- | --- | --- | --- | --- | --- | --- | --- | --- | --- | --- | --- | --- | --- | --- |
| COc1nc(-c2cn(S(=O)(=O)c3ccc(C)cc3)c3ccc(Br)cc23)cc(C(F)(F)F)c1C#N | 18 µM (inactive) | 71.8 µM (inactive) | 23.3 µM (inactive) | 41.4 µM (inactive) | 38.8 µM (inactive) | > 100 µM (inactive) | 81.1 µM (inactive) | > 100 µM (inactive) | > 100 µM (inactive) | 45.2 µM (inactive) | 77.6 µM (inactive) | 45.1 µM (inactive) | 28.4 µM (inactive) | 24.8 µM (inactive) | 47.9 µM (inactive) | 85.9 µM (inactive) | 31.3 µM (inactive) | 94.4 µM (inactive) | > 100 µM (inactive) | 55 µM (inactive) |
| COc1ccc(OC)c(C(=O)/C=C/c2cc(O)c(O)cc2F)c1 | 5.24 µM (inactive) | 0.412 µM (active) | 0.442 µM (active) | 2.29 µM (inactive) | 0.701 µM (active) | 2.47 µM (inactive) | 0.219 µM (active) | 0.474 µM (active) | 15.5 µM (inactive) | 4.71 µM (inactive) | 0.558 µM (active) | 0.417 µM (active) | 1.61 µM (inactive) | 0.41 µM (active) | 0.272 µM (active) | 0.538 µM (active) | 10.1 µM (inactive) | 1.85 µM (inactive) | 2.14 µM (inactive) | 2.66 µM (inactive) |
| CN(C)c1ccc(C2ON=C(c3ccccc3)N2C23CC4CC(CC(C4)C2)C3)cc1 (stereo unspecified) | > 10 µM (inactive) | > 10 µM (inactive) | > 10 µM (inactive) | > 10 µM (inactive) | > 10 µM (inactive) | > 10 µM (inactive) | > 10 µM (inactive) | > 10 µM (inactive) | > 10 µM (inactive) | > 10 µM (inactive) | > 10 µM (inactive) | > 10 µM (inactive) | > 10 µM (inactive) | > 10 µM (inactive) | > 10 µM (inactive) | > 10 µM (inactive) | > 10 µM (inactive) | > 10 µM (inactive) | > 10 µM (inactive) | – |
| CC(C)(Br)C(Br)CCC(C)(Br)C(Br)CO (stereo unspecified) | > 10 µM (inactive) | > 10 µM (inactive) | > 10 µM (inactive) | > 10 µM (inactive) | – | > 10 µM (inactive) | > 10 µM (inactive) | – | > 10 µM (inactive) | > 10 µM (inactive) | > 10 µM (inactive) | > 10 µM (inactive) | > 10 µM (inactive) | > 10 µM (inactive) | > 10 µM (inactive) | > 10 µM (inactive) | > 10 µM (inactive) | > 10 µM (inactive) | – | > 10 µM (inactive) |
| COC(=O)CCC(NC(=O)OC(C)(C)C)C(=O)NC(Cc1ccc([N+](=O)[O-])cc1)C(=O)NC(CCC(=O)OC)C(=O)OC (stereo unspecified) (Boc-Glu(OMe)-[Phe(4-NO2)]-Glu(OMe)-OMe; configuration not given here) | 74.8 µM (inactive) | > 100 µM (inactive) | 33.1 µM (inactive) | > 100 µM (inactive) | > 100 µM (inactive) | > 100 µM (inactive) | > 100 µM (inactive) | > 100 µM (inactive) | > 100 µM (inactive) | > 100 µM (inactive) | > 100 µM (inactive) | 51.9 µM (inactive) | > 100 µM (inactive) | 12.3 µM (inactive) | > 100 µM (inactive) | > 100 µM (inactive) | > 100 µM (inactive) | > 100 µM (inactive) | 60.3 µM (inactive) | > 100 µM (inactive) |
